{
  "source": "patent US11814652B2",
  "about": "“Pluripotent stem cell differentiation-promoting agent” (Oriental Yeast Co., Ltd., priority 2018, dated 2023)",
  "key": {"iPS cells 253G1 strain": {"system": "iPS cells 253G1 strain", "assay": "Flow cytometry of Sox17 after endodermal differentiation-induction following undifferentiated culture with β-NMN (Example 5)", "type": "cell-based", "conditions": "β-NMN 0.25 or 1 mM during undifferentiated culture, then endodermal differentiation-induction; 5th or 7th day; versus absence of β-NMN", "experimental": "The effects of culturing in the presence of β-NMN before induction of differentiation on the endodermal differentiation-induction of iPS cells was examined. As the iPS cells, the 253G1 strain was used. iPS cells seeded on a culture dish coated with Matrigel (manufactured by Corning Incorporated) according to the manufacturer's protocol were cultured in a culture medium prepared by adjusting a culture medium for iPS cells to have a final concentration of β-NMN 0, 0.25 or 1 mM, and a final concentration of Rock inhibitor of 10 μM for 1 day. From the 1st day after seeding, the culture medium was replaced every day with a culture medium obtained by removing the Rock inhibitor from the culture medium at the time of seeding. When the confluent reached 70 to 80%, the iPS cells were detached from the culture dish and collected. The collected iPS cells were seeded at 3×10^5 cells/well in a 24-well plate coated with Matrigel (manufactured by Corning Incorporated) according to the manufacturer's protocol. […] After washing the stained cells, a flow cytometer “FACS caliber” (manufactured by Becton, Dickinson and Company) was used to analyze the fluorescence intensity of the anti-Sox17 antibody and the fluorescence intensity of the anti-FoxA2 antibody in each sample. […]"}, "iPS cells 201B7 strain": {"system": "iPS cells 201B7 strain", "assay": "Flow cytometry of Nestin/Pax6 ectodermal markers, differentiation-induction in medium with β-NMN (Example 2)", "type": "cell-based, human", "conditions": "ectodermal differentiation-inducing medium with β-NMN 0.1, 0.25 or 1 mM; 2nd, 4th, 7th day; versus absence of β-NMN", "experimental": "The effect of β-NMN on the ectodermal differentiation-induction of the iPS cells was examined. The 201B7 strain was used as the iPS cells. The iPS cells were seeded in a 12-well plate coated with Matrigel (manufactured by Corning Incorporated) according to the manufacturer's protocol at 8×10^5 cells/well. The cells in the 12-well plate were cultured in a culture medium prepared by adjusting an ectodermal differentiation-inducing culture medium of “STEMdiff Trilineage Differentiation kit” (manufactured by STEMCELL Technologies) to have a final concentration of β-NMN of 0, 0.1, 0.25, or 1 mM, and a final concentration of Rock inhibitor of 10 μM for 1 day. From the 1st day after seeding, the medium was replaced every day with a culture medium obtained by removing the Rock inhibitor from the culture medium at the time of seeding. […] Then, the cells were stained with a fluorescence-labeled anti-Nestin antibody (manufactured by Biolegend, clone 10C2) and a fluorescence-labeled anti-Pax6 antibody (manufactured by Becton, Dickinson and Company, clone O18-1330). After washing the stained cells, a flow cytometer “FACScaliber” (manufactured by Becton, Dickinson and Company) was used to analyze the fluorescence intensity of the anti-Nestin antibody and the fluorescence intensity of the anti-Pax6 antibody in each sample. […]"}, "[1]": {"system": "human iPS cell strain 201B7", "assay": "RT-PCR of marker expression in iPS cells cultured in E6 differentiation-inducing medium with β-NMN (Example 1)", "type": "cell-based", "conditions": "3rd and 7th day after seeding, β-NMN 0.25 or 1 mM in E6 medium, compared to cells cultured in the absence of β-NMN", "experimental": "The effect of β-NMN on the differentiation of three germ layers of the iPS cells was examined. As the iPS cells, the human iPS cell strain 201B7 was used. A U-bottom shape 96-well plate “Nunclon Sphera 96 U-well plate” (manufactured by Thermo Fisher Scientific) was seeded with iPS cells at 10,000 cells/well, and cultured in an E6 culture medium (manufactured by Gibco) as a differentiation-inducing culture medium adjusted to have a final concentration of β-NMN of 0, 0.25 or 1 mM, and a final concentration of Rock inhibitor of 10 μM for 1 day. The Rock inhibitor was added to suppress Rho-dependent apoptosis. On the 1st and 5th days after seeding, the culture medium was replaced with a culture medium obtained by removing the Rock inhibitor from the culture medium at the time of seeding. Cells on the 3rd and 7th days after seeding were sampled and subjected to RT-PCR to investigate the expression levels of undifferentiated markers (Nanog, Sox2, Oct3/4, Lin28a, Klf4), endoderm markers (Sox17, AFP), mesoderm markers (MSX1, Brachyury) and ectodermal markers (PAX6). […] The expression level of each marker was evaluated by PCR using the obtained cDNA. […]"}},
  "data": [
    {"smiles": "NC(=O)c1ccc[n+]([C@@H]2O[C@H](COP(=O)([O-])O)[C@@H](O)[C@H]2O)c1", "note": "[β-NMN, β-nicotinamide mononucleotide]", "values": [
      {"measurement": "ratio of Sox17-positive cells", "setting": "iPS cells 253G1 strain", "value": "higher"},
      {"measurement": "ratio of Nestin-positive Pax6-positive cells", "setting": "iPS cells 201B7 strain", "value": "higher"},
      {"measurement": "expression level of each undifferentiated marker (Nanog, Sox2, Oct3/4, Lin28a, Klf4)", "setting": "[1]", "value": "decreased"},
      {"measurement": "expression level of the differentiated marker (Sox17, AFP, MSX1, Brachyury, PAX6)", "setting": "[1]", "value": "increased"}
    ]}
  ]
}
